Source: ChEMBL document CHEMBL3856204, “Chiral 6-aryl-furo[2,3-d]pyrimidin-4-amines as EGFR inhibitors” (Eur J Med Chem, 2016)

Experiments:
[1] = target: Platelet-derived growth factor receptor alpha (Homo sapiens) (UniProt P16234); assay: Inhibition of GST tagged recombinant human PGFRA cytoplasmic domain (550 to 1089 residues) expressed in baculovirus at 500 nM by Z'-LYTE assay
[2] = target: Glycogen synthase kinase-3 beta (Homo sapiens) (UniProt P49841); assay: Inhibition of His tagged recombinant full length human GSK3B expressed in baculovirus at 500 nM by Z'-LYTE assay
[3] = target: Macrophage colony-stimulating factor 1 receptor (Homo sapiens) (UniProt P07333); assay: Inhibition of His tagged recombinant human FMS cytoplasmic domain (538 to 910 residues) expressed in baculovirus at 500 nM by Z'-LYTE assay
[4] = target: Tyrosine-protein kinase Fgr (Homo sapiens) (UniProt P09769); assay: Inhibition of recombinant full length human C-terminal His-tagged FGR expressed in baculovirus at 500 nM by Z'-LYTE assay
[5] = target: Angiopoietin-1 receptor (Homo sapiens) (UniProt Q02763); assay: Inhibition of GST tagged recombinant human Tie2 cytoplasmic domain (817 to 1101 residues) expressed in baculovirus at 500 nM by Z'-LYTE assay
[6] = target: T1, Serine/threonine-protein kinase Nek1 (Homo sapiens) (UniProt Q96PY6); assay: Inhibition of GST tagged recombinant human NEK1 catalytic domain (1 to 505 residues) expressed in baculovirus at 500 nM by Z'-LYTE assay
T1 sequence (whole entry): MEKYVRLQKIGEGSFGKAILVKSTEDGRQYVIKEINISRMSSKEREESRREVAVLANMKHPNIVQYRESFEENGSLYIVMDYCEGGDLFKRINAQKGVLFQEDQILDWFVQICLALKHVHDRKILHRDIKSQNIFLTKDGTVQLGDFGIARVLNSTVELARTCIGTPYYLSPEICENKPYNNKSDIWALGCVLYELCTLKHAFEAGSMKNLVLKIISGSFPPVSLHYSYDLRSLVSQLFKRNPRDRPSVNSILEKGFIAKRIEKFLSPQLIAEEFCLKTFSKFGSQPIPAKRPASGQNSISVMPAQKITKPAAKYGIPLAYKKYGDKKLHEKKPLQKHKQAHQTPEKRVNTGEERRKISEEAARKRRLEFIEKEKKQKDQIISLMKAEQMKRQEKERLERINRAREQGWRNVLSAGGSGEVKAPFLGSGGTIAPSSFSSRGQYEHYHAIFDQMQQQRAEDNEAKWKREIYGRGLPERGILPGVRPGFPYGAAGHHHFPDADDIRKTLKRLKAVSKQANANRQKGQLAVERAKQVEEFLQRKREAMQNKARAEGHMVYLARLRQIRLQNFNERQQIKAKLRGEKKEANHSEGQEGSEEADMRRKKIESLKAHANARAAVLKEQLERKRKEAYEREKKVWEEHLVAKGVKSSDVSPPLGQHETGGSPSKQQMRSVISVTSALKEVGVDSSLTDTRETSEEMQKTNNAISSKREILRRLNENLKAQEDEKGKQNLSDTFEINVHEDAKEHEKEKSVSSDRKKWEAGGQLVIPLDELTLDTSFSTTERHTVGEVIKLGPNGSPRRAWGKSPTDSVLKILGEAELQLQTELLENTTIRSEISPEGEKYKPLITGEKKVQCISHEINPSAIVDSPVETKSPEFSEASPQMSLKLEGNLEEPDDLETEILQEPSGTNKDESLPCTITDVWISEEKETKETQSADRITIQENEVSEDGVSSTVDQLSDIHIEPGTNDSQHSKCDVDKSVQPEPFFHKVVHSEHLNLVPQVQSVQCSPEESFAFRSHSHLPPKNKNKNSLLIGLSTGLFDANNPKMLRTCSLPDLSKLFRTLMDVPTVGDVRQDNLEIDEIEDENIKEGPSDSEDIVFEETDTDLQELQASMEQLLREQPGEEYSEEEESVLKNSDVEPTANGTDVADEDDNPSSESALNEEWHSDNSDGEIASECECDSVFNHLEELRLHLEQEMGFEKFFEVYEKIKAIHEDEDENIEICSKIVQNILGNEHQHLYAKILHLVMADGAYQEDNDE

[7] = target: Mast/stem cell growth factor receptor Kit (Homo sapiens) (UniProt P10721); assay: Inhibition of His tagged recombinant human KIT cytoplasmic domain (544 to 976 residues) expressed in baculovirus at 500 nM by Z'-LYTE assay
[8] = target: T2, Serine/threonine-protein kinase Chk1 (Homo sapiens) (UniProt O14757); assay: Inhibition of His tagged recombinant full length human CHK1 expressed in baculovirus at 500 nM by Z'-LYTE assay
T2 sequence (whole entry): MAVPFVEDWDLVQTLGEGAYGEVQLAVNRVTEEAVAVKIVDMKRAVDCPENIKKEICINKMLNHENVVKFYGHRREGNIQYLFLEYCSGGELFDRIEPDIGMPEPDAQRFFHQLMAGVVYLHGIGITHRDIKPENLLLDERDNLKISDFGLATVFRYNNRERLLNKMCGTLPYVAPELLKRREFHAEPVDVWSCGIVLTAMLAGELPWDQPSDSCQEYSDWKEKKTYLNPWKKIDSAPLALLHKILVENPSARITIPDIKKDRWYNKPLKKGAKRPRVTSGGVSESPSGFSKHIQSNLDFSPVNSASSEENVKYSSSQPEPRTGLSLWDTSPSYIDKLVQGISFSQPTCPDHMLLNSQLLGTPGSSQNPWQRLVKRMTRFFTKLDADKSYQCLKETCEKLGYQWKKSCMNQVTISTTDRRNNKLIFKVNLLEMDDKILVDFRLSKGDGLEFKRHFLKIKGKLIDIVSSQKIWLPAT

[9] = target: Vascular endothelial growth factor receptor 1 (Homo sapiens) (UniProt P17948); assay: Inhibition of GST tagged recombinant human FLT1 cytoplasmic domain (781 to 1338 residues) expressed in baculovirus at 500 nM by Z'-LYTE assay
[10] = target: Proto-oncogene tyrosine-protein kinase receptor Ret (Homo sapiens) (UniProt P07949); assay: Inhibition of GST tagged recombinant human RET cytoplasmic domain (658 to 1114 residues) expressed in baculovirus at 500 nM by Z'-LYTE assay
[11] = target: Tyrosine-protein kinase Yes (Homo sapiens) (UniProt P07947); assay: Inhibition of GST tagged recombinant full length human YES1 expressed in baculovirus at 500 nM by Z'-LYTE assay
[12] = target: Tyrosine-protein kinase Fer (Homo sapiens) (UniProt P16591); assay: Inhibition of recombinant human GST-tagged FER (541 to 822 residues) expressed in baculovirus at 500 nM by Z'-LYTE assay- tagged
[13] = target: Serine/threonine-protein kinase PLK1 (Homo sapiens) (UniProt P53350); assay: Inhibition of His tagged recombinant full length human PLK1 expressed in baculovirus at 500 nM by Z'-LYTE assay
[14] = target: Protein kinase C beta type (Homo sapiens) (UniProt P05771); assay: Inhibition of recombinant full length human PRKCB1 expressed in baculovirus at 500 nM by Z'-LYTE assay

Chain of Serine/threonine-protein kinase PLK1 (Homo sapiens) (P53350 whole entry): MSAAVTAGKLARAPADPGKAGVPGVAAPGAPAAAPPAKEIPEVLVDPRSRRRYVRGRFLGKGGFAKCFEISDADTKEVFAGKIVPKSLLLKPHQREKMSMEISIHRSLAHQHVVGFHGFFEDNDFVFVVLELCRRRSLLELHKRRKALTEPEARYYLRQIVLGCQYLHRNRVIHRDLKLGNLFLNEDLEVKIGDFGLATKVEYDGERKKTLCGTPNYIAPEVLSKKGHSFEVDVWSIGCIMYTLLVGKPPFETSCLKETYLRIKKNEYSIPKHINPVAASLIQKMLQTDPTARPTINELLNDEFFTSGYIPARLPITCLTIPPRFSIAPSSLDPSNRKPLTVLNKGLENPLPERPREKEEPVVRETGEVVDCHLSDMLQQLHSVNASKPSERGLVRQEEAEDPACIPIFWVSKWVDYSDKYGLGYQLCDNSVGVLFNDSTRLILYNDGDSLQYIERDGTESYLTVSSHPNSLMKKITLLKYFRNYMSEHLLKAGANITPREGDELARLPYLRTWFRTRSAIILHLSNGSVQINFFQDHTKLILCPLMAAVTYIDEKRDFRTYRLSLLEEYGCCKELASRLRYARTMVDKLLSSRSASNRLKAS
Chain of Tyrosine-protein kinase Fer (Homo sapiens) (P16591 whole entry, looked up, the tested form may be a part): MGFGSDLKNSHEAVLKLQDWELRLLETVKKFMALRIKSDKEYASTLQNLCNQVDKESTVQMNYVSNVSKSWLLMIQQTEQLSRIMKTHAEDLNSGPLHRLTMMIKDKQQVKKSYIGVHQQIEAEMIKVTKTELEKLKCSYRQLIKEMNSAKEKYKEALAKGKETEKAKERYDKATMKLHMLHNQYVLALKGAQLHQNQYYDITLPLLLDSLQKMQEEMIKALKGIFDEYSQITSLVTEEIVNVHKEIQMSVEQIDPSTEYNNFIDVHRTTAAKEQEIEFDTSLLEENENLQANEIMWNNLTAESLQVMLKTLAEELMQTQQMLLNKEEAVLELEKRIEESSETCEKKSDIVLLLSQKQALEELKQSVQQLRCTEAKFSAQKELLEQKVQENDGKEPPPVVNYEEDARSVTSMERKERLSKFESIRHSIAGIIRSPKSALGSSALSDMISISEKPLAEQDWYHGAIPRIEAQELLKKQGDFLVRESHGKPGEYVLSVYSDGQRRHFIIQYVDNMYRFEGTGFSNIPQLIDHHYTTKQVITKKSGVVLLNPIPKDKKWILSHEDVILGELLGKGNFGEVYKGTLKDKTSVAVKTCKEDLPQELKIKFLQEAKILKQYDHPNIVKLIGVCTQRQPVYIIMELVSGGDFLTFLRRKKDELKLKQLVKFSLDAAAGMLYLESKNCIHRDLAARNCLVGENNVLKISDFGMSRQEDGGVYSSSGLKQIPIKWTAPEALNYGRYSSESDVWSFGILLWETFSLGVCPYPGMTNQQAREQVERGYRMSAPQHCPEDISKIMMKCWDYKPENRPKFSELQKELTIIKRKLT
Chain of Glycogen synthase kinase-3 beta (Homo sapiens) (P49841 whole entry, looked up, the tested form may be a part): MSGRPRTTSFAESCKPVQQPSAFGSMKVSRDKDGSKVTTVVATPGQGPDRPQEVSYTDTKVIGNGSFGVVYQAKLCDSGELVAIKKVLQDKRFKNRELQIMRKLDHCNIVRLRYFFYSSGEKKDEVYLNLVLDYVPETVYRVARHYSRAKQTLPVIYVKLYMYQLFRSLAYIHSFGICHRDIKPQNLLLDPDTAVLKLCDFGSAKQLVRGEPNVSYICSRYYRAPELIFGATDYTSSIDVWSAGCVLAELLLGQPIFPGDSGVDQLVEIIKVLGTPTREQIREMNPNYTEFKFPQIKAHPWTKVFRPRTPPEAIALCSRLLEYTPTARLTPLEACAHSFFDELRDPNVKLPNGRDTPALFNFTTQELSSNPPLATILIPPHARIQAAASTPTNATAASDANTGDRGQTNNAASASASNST
Chain of Tyrosine-protein kinase Yes (Homo sapiens) (P07947 2-543 limits assumed): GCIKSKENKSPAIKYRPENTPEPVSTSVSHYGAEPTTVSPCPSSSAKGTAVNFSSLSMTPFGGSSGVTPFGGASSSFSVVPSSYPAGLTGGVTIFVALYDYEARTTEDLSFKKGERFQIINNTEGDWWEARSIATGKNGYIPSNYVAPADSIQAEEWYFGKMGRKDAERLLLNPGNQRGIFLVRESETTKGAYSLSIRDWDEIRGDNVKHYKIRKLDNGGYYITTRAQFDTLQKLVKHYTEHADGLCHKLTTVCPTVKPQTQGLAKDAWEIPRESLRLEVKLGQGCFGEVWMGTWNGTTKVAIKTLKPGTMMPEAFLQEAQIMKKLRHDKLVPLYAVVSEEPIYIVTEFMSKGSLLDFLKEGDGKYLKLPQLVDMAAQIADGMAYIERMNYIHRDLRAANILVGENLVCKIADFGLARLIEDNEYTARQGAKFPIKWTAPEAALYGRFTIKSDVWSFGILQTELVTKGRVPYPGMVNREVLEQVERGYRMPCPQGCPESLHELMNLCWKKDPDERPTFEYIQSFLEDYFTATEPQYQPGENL
Chain of Platelet-derived growth factor receptor alpha (Homo sapiens) (P16234 whole entry, the tested form may be a part): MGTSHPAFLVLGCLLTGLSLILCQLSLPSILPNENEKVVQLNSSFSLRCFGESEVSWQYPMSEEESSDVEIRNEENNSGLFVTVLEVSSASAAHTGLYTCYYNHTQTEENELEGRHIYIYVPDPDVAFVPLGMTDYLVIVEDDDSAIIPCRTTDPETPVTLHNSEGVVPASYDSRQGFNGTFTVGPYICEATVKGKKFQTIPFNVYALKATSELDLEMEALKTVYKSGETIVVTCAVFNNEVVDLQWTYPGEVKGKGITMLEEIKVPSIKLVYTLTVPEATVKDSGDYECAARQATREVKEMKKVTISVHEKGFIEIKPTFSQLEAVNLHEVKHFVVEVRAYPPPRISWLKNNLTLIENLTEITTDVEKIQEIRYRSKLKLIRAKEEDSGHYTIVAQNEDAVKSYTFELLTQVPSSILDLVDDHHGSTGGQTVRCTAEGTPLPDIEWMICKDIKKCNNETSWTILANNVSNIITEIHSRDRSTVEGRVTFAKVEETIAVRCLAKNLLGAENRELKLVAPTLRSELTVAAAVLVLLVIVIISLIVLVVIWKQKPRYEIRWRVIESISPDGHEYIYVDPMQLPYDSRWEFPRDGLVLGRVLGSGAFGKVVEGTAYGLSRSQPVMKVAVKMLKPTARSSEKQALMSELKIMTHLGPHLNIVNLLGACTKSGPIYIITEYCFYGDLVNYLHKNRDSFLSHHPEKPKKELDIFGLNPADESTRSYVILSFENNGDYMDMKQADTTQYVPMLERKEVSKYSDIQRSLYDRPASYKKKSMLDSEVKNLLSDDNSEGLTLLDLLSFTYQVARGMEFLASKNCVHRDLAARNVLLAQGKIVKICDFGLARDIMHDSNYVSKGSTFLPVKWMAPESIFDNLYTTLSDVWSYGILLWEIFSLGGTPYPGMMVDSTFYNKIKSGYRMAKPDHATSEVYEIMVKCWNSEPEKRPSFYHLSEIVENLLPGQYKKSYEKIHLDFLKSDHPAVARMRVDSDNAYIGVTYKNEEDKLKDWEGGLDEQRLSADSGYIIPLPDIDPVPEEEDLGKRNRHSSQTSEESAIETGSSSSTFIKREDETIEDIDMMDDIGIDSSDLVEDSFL
Chain of Vascular endothelial growth factor receptor 1 (Homo sapiens) (P17948 whole entry, the tested form may be a part): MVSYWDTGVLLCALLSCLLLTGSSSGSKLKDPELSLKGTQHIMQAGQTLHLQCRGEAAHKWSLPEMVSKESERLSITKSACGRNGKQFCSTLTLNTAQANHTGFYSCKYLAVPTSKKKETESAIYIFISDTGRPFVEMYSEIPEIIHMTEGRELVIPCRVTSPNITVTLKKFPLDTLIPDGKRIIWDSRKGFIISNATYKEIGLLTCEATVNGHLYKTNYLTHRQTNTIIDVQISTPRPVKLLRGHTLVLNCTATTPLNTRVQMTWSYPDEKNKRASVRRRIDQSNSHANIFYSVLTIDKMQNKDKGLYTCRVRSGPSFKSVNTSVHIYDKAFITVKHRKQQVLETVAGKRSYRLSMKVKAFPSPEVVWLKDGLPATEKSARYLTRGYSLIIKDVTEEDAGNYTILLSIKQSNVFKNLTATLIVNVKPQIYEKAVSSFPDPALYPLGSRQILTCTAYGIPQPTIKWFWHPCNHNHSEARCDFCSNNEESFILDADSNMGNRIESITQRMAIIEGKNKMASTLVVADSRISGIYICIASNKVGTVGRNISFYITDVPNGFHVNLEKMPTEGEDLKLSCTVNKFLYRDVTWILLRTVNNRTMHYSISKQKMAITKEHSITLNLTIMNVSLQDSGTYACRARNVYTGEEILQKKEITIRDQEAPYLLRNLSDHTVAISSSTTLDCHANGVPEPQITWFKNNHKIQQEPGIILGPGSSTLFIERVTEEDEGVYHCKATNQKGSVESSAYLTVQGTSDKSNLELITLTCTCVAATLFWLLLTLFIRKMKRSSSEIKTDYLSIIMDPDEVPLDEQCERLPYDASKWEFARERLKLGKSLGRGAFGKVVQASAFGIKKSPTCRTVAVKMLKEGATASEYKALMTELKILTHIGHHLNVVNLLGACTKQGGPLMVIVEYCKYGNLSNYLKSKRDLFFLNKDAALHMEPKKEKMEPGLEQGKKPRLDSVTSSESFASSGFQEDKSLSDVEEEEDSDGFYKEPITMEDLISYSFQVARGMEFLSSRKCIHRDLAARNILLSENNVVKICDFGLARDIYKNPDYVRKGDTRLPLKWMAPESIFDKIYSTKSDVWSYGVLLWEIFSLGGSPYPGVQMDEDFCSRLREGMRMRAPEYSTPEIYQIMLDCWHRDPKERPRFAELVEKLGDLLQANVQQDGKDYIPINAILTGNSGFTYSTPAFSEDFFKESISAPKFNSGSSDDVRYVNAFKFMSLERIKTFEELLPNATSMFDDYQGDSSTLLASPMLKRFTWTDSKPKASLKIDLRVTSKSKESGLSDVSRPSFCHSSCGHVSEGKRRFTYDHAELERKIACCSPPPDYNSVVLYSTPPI

Row | inhibition [1] [%] | inhibition [2] [%] | inhibition [3] [%] | inhibition [4] [%] | inhibition [5] [%] | inhibition [6] [%] | inhibition [7] [%] | inhibition [8] [%] | inhibition [9] [%] | inhibition [10] [%] | inhibition [11] [%] | inhibition [12] [%] | inhibition [13] [%] | inhibition [14] [%] | SMILES
1 | 22 | 4 | 78 | 56 | 8 | -1 | 7 | -9 | 1 | 11 | 54 | 4 | -5 |  | C[C@@H](Nc1ncnc2oc(-c3ccc(NCCN4CCCCC4)cc3)cc12)c1ccccc1
2 | 27 | 4 | 79 | 60 | 9 | 3 | 19 | -2 | -2 | 11 | 51 | 6 | 0 | -10 | C[C@@H](Nc1ncnc2oc(-c3ccc(NCCN(C)C)cc3)cc12)c1ccccc1
3 | 5 | -8 |  |  |  | -8 |  | -7 |  |  | 29 | -1 | -9 | -2 | C#Cc1cccc(Nc2ncnc3cc(OCCOC)c(OCCOC)cc23)c1
